Test system: U87MG (glioblastoma) xenograft tumors
Assay: U87MG glioblastoma xenograft tumor growth in nude mice
Type: in vivo
Conditions: for inhibition of U87MG glioblastoma xenograft tumor growth: TMZ alone, ip Day 1-5
Description: The following human glioblastoma xenograft model may be employed to ascertain the efficacy of the formulations and methods described herein. Human glioblastoma cell U87MG are inoculated subcutaneously into female nude mice (age 4-6 wks). Xenograft tumor growth is followed by measuring the tumor size using a caliper. Once tumor size reaches about 100 mm3 (average), mice carrying the xenograft tumors are grouped and treated with different doses of the combination of TMZ and a PKC inhibitor (e.g., enzastaurin). Likewise, human glioblastoma cell U373 may be used to establish a xenograft model.
The combination of TMZ and a PKC inhibitor (e.g., enzastaurin) for treating a cell proliferative disorder was examined using a glioblastoma xenograft model. In particular, the glioblastoma model U87MG was used to evaluate the efficacy of PKC inhibitor enzataurin as a single agent compared to TMZ (Temodar®), a chemotherapeutic drug clinically approved for treating brain tumor, as a single agent. In addition, this study looked at the efficacy of the combination of TMZ with enzastaurin in comparison to the efficacy with either agent alone.
In brief, nude mice were inoculated with U87-MG glioblastoma cells and the resultant tumors treated with control, or various concentrations of TMZ, enzastaurin, or a combination of both TMZ and enzastaurin. More specifically, 150 female nude mice (strain NU/NU), aged 5-7 weeks old were purchased from Charles River Laboratory. Four million glioblastoma cells U87-MG were mixed 1:1 (volume:volume) with Matrigel (Cat. #354234, BD Biosciences) on ice and mixtures were inoculated subcutaneously to the flank of each mouse. Dosing was initiated when the tumors reached an average size of 90 mm^3. The dosing volume was 0.2 mL. Tumor size and body weight was measured two to three times per week. […] Note that there were 10 nude mice per dosing regimen.

SMILES	effect on tumor growth as single agent (enzastaurin alone, 37.5 or 75 mpk qd, po)	inhibition of U87MG glioblastoma xenograft tumor growth (5 mpk qd)	inhibition of U87MG glioblastoma xenograft tumor growth (10 mpk qd)	inhibition of U87MG glioblastoma xenograft tumor growth (20 mpk qd)
Cn1cc(C2=C(c3cn(C4CCN(Cc5ccccn5)CC4)c4ccccc34)C(=O)NC2=O)c2ccccc21 [enzastaurin]	little effect on tumor growth	–	–	–
Cn1nnc2c(C(N)=O)ncn2c1=O [TMZ, 3,4-dihydro-3-methyl-4-oxoimidazo[5,1-d]-as-tetazine-8-carboxamide]	–	98%	102%	103%

Source: patent US20070112053A1, “Pharmaceutical compositions and methods using temozolomide and a protein kinase inhibitor” (priority 2005, published 2007)
